In patent US9446019B2, “Sparstolonin B based pharmaceutical agent for neuroblastoma treatment” (University of South Carolina, priority 2013, dated 2016):

Assays:
Format in all cases: cell-based, human
p53 in SH-SY5Y cells = assay: p53 expression by Western blotting; details: SsnB 10 μM
Protocol: (§1) After treatment with SsnB, cells were collected, washed with 1×PBS, and lysed with 1× cell lysis buffer (Cell Signaling Technology, Danvers, Mass.) containing phenylmethylsulfonyl fluoride (PMSF) and protease inhibitors (aprotinin and leupeptin) for 30 min on ice, and centrifuged at 12000×rpm for 10 min at 4° C. Supernatant (total cell protein) was collected and stored at −80° C. Protein concentration was determined by bicinchoninic acid method using BCA protein assay kit (Pierce/ThermoScientific, Waltham, Mass.). Equal amount of proteins were diluted with 5× Laemmli samples loading buffer and boiled for five minutes. The proteins were subjected to sodium dodecyl sulfate (SDS)-polyacrylamide gel electrophoresis and analyzed by Western blots. Briefly, after electrophoresis, proteins were transferred on polyvinylidene difluoride (PVDF) membrane at 100 volt for 3 h in cold room. […] Signals were detected by chemiluminiscence detection kit (Pierce/Thermo Fisher Scientific, Rockford, Ill.). […]
At cellular level, mitochondria- or receptor (Fas/FasL)-mediated pathways activate caspase signaling cascade which in turn induces DNA damage and initiates programmed cell death (apoptosis). […] The number of cleaved caspase-3 positive cells were quantitated by ImageJ programme and plotted. […]

neuroblastoma cells = assay: TUNEL assay for DNA fragmentation in cells
Source text: Increased levels of ROS are known to induce oxidative stress which in turn cleaves DNA that leads to cell death. SsnB-induced DNA fragmentation in neuroblastoma cells was examined by terminal deoxynucleotidyl transferase dUTP nick end labeling (TUNEL) assay. In this assay, nicked DNA is identified by the addition of fluorophore-labeled dUTPs by enzyme terminal deoxynucleotidyl transferase (TdT) to the terminal ends of damaged DNA in apoptotic cells. The TUNEL-positive cells were quantitated by ImageJ programme and plotted. […] However, such TUNEL-positive cells were not detected in DMSO- or SsnB (1 μM)-treated cells.

[1] = test system: N-myc in IMR-32, NGP and SK-N-BE(2) cells; assay: N-myc protein level by Western blotting
Protocol: as §1
The level of N-myc proteins was evaluated from 2 days (IMR-32), 3 days (NGP cells) or 4 days (SK-N-BE(2) cells) SsnB-treated N-myc amplified neuroblastoma cells by Western blotting, and protein signal intensity was measured by ImageJ programme and plotted. […]

[2] = test system: intracellular GSH in neuroblastoma cells; assay: Cellular glutathione level, luminescence GSH-Glo assay
Protocol: Cells treated with SsnB or DMSO were washed and re-suspended in PBS and the intracellular GSH level was measured by luminescence based GSH-Glo glutathione assay kit (Promega, Madison, Wis.) following manufacturer's protocol. The luminescence was monitored in a luminometer (Promega Biosystems, Sunnyvale, Calif.).
At the cellular level, reduced glutathione (GSH) protects cells from oxidative damage resulted from increased superoxides, peroxides and free radicals. Since SsnB induces oxidative stress, SsnB affect of intracellular levels of GSH in neuroblastoma cells was examined. After treatment with SsnB for 2 days (SH-SY5Y and IMR-32), 3 days (NGP cells) or 4 days (SKNF-1 and SK-N-BE(2) cells), the cellular GSH level was measured by luminescence based glutathione assay kit.

[3] = test system: reactive oxygen species in neuroblastoma cells; assay: ROS generation, H2DCFDA fluorometry assay
Protocol: The production of reactive oxygen species (ROS) in SsnB-treated neuroblastoma cells was detected by a cell-permeable fluorescence probe H2DCFDA (carboxy-2′,7′-dichlorodihydrofluorescein diacetate) according to the manufacturer's instructions (Invitrogen, Carlsbad, Calif.). Briefly, neuroblastoma cells were cultured in DMEM with 10% FBS in Lab-TekII chamber slides (Fisher Scientific, Pittsburg, Pa.) and treated with SsnB for 2 days (SH-SY5Y and IMR-32 cells), 3 days (NGP cell) or 4 days (SKNF-1 and SK-N-BE(2) cells). After treatments, cells were washed with Hank's buffered salt solution (HBSS; Thermo Scientific, Waltham, Mass.) and incubated with 25 μM of carboxy-H2DCFDA dye for 30 min at 37° C. in dark. Nuclei were counterstained with DAPI. Cells were washed three times with HBSS, mounted with Vectashield mounting medium (Vector Laboratories), and immediately examined under Nikon-E600 fluorescence microscopy equipped with fluorescein isothiocyanate (FITC) filter. Oxidation of H2DCFDA probe occurs almost exclusively in the cytosol, and generates a fluorescence that is proportional to ROS generation in that cell. As a negative control, cells without H2DCFDA dye were used to detect autofluorescence. The fluorometric analysis to detect generation of ROS was performed. Briefly, after treatments with SsnB as mentioned above, cells were labeled with carboxy-H2DCFDA dye (25 μM) for 30 min at 37° C. Cells were trypsinized, washed, and re-suspended in PBS and fluorescence intensity was monitored at excitation wavelength 485 nm and emission wavelength 530 nm with a spectramax spectrophotometer (Molecular Devices, Sunnyvale, Calif.).
SsnB-induced generation of ROS was also evaluated by fluorometry assay. Neuroblastoma cells as treated above were incubated with H2DCFDA dye for 30 min and the fluorescence intensity was measured at 485 nm (excitation wavelength) and 530 nm (emission wavelength).

O=c1occ2c3c(ccc(O)c13)Oc1ccc(O)cc1-2 [SsnB, 8,5′-dihydroxy-4-phenyl-5,2′-oxidoisocoumarin]
p53 expression vs DMSO (p53 in SH-SY5Y cells): Increased expression of p53
number of TUNEL-positive cells vs control (neuroblastoma cells; SsnB 1 μM, nonsignificant): almost similar to DMSO-treated samples
number of TUNEL-positive cells vs control (neuroblastoma cells; SsnB 10 μM, all neuroblastoma cells): significantly higher
reduction in N-myc protein expression ([1]; SsnB 1 μM, nonsignificant vs control): not observed
N-myc protein expression ([1]; SsnB 10 μM, 2 days (IMR-32), 3 days (NGP), 4 days (SK-N-BE(2))): inhibited the expression of N-myc protein
cellular GSH level ([2]; SsnB 1 μM): slightly higher or equal to control levels
cellular GSH level ([2]; SsnB 10 μM, 2, 3 or 4 days depending on line, p<0.05): ~40 % of control
H2DCFDA fluorescence intensity vs DMSO ([3]; SsnB 1 μM, nonsignificant): almost similar
H2DCFDA fluorescence intensity vs DMSO ([3]; SsnB 10 μM, p<0.05): significantly increased
